Source: patent publication US20140377201A1, “SKIN-WHITENING COMPOSITION CONTAINING EXTRACTS FROM TREES INCLUDING PAPER MULBERRY” (Amorepacific Corporation, priority 2010, published 2014)

How the values were obtained:
B16/F10 melanoma cells = assay: Melanin production inhibitory activity using B16/F10 melanoma cells; type: cell-based; details: 50 μg/ml of arbutin; incubated for 3 days; absorbance at 405 nm
Protocol: Samples, containing 0.001 wt % of each of the extracts of Examples 1 to 9 and Comparative Examples 1 to 3, and 50 /μg/ml of arbutin, were used as test materials. Each of the test materials was added to a culture of B16/F10 melanoma cells (Korean Cell Line Bank) at a given concentration and incubated for 3 days. The medium as removed, and the cells were washed with PBS and lysed with 1N NaOH, and the absorbance at 405 nm was measured. As a control, cells to which no test material was added were used. The skin whitening effects of the test materials were measured by measuring the melanin production inhibitory activity of each test material in comparison with the content of melanin in the control. Melanin production inhibition (%) was calculated using the following equation 2, and the calculation results are shown in Table 2 below.
Melanin production inhibition (%)=100−(absorbance of each test material/absorbance of control)×100 [Equation 2]

[1] = tested on: tyrosinase (SIGMA) extracted from mushrooms; assay: Tyrosinase inhibitory effect; type: biochemical; details: positive control, 40 μg/ml of kojic acid; substrate tyrosine; 37° C.; absorbance at 475 nm
Protocol: The enzyme tyrosinase used in this Test Example was a tyrosinase (SIGMA) extracted from mushrooms. First, the substrate tyrosine was dissolved in distilled water at a concentration of 0.3 mg/ml, and 1.0 ml of the solution was placed in each test tube. Then, 1.0 ml of potassium-phosphate buffer (0.1 M, pH 6.8) and 0.7 ml of distilled water were added thereto, thereby preparing a mixed solution. […] Then, the test tube containing the reaction solution was quenched in ice water to stop the reaction, and the absorbance at 475 nm was measured with a photoelectric spectrophotometer. Then, the tyrosinase inhibitory activity of each of the extracts was calculated using the following equation 1, and the results of the calculation are shown in Table 1 below. Tyrosinase inhibition (%)=100−(absorbance of each extract/absorbance of control×100 [Equation 1]

Tyrosinase inhibition (%) [1]	Structure (SMILES)	Melanin production inhibition (%) (B16/F10 melanoma cells)
	OC[C@H]1O[C@@H](Oc2ccc(O)cc2)[C@H](O)[C@@H](O)[C@@H]1O [Arbutin, arbutin]	48%
51%	O=c1cc(CO)occ1O [Kojic acid, kojic acid]	
